Laboratory results published in publication PMC8126183, “Three LysM effectors of Zymoseptoria tritici collectively disarm chitin‐triggered plant immunity” (Molecular Plant Pathology, 2021).

Experiments:
Mg1LysM = molecular target: T1, Mg1LysM (Zymoseptoria tritici, UniProt F9XHX3); assay: ligand-induced polymerization, centrifugation pellet with methylene blue; type: binding; conditions: 200 µM protein stock mixed 1:1 with 2 mM chitohexaose; room temperature overnight; positive control
T1 construct: E. coli-produced; single LysM; borders and tag not described; ligand-independent homodimer

Mgx1LysM = molecular target: T2, Mgx1LysM (Zymoseptoria tritici, UniProt P9WEM2); assay: as above; type: binding; conditions: 200 µM protein stock mixed 1:1 with 2 mM chitohexaose; room temperature overnight
T2 construct: mature protein, signal peptide removed; E. coli Origami, pETSUMO; 6xHis-SUMO tag cleaved with ULP1; single LysM
T2 sequence (P9WEM2 19-103): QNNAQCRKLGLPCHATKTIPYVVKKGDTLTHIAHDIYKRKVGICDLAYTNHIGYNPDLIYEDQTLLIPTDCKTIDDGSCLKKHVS

T1 sequence (F9XHX3 19-97): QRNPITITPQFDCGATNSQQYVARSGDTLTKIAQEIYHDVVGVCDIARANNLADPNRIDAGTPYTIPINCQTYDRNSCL

## CC(=O)N[C@H]1[C@H](O[C@H]2[C@H](O)[C@@H](NC(C)=O)[C@H](O[C@H]3[C@H](O)[C@@H](NC(C)=O)C(O)O[C@@H]3CO)O[C@@H]2CO)O[C@H](CO)[C@@H](O[C@@H]2O[C@H](CO)[C@@H](O[C@@H]3O[C@H](CO)[C@@H](O[C@@H]4O[C@H](CO)[C@@H](O)[C@H](O)[C@H]4NC(C)=O)[C@H](O)[C@H]3NC(C)=O)[C@H](O)[C@H]2NC(C)=O)[C@@H]1O (some centres unmarked) [chitohexaose]
Mg1LysM
  ligand-induced polymerization, centrifugation pellet with methylene blue: protein pellets (red arrowheads) as a consequence of polymerization for Mgx1LysM, Mg1LysM, and RiSLM
Mgx1LysM
  ligand-induced polymerization, centrifugation pellet with methylene blue: a clear Mgx1LysM pellet emerged upon incubation with chitin, and not in the absence
